Test results from ChEMBL document CHEMBL1144773, “Neolignans, a coumarinolignan, lignan derivatives, and a chromene: anti-inflammatory constituents from Zanthoxylum avicennae” (J Nat Prod, 2008).
pIC50: −log10 of the molar value.

Columns and labels:
[1] = Antiinflammatory activity in human neutrophils assessed as inhibition of formyl-L-methionyl-L-leucyl-L-phenylalanine/cytochalasin B-induced superoxide anion generation; assay type: functional, cell-based; conditions: Neutrophil
[2] = Antiinflammatory activity in human neutrophils assessed as inhibition of formyl-L-methionyl-L-leucyl-L-phenylalanine/cytochalasin B-induced elastase release; assay type: functional, cell-based; conditions: Neutrophil

| Structure (SMILES) | pIC50 [1] | pIC50 [2] |
| --- | --- | --- |
| COc1cc([C@@H]2Oc3cc(/C=C/C=O)cc(OC)c3O[C@H]2CO)ccc1O | < 4.30 | < 4.30 |
| COc1cc([C@@H]2Oc3c(c(OC)cc4ccc(=O)oc34)O[C@H]2CO)cc(OC)c1O [CLEOMISCOSIN D] | 4.88 | < 4.30 |
| COc1cc([C@@H]2Oc3c(c(OC)cc4ccc(=O)oc34)O[C@H]2CO)cc(OC)c1OC | 4.83 | < 4.30 |
| COc1c2c(c3ccc(=O)oc3c1/C=C/C(C)(C)O)OC(C)(C)C=C2 [AVICENNOL] | < 4.30 | 4.49 |
| COc1cc2ccc(=O)oc2cc1OC [SCOPARONE] | 4.37 | < 4.30 |
| Cn1c2ccccc2c(=O)c2ccoc21 [ISODICTAMNINE] | < 4.30 | < 4.30 |
| COc1cc([C@@H]2Oc3cc(/C=C/C=O)cc(OC)c3O[C@H]2CO)cc(OC)c1O | 4.31 | < 4.30 |
| COc1c2ccccc2nc2occc12 [DICTAMNINE] | < 4.30 | < 4.30 |
| COc1c2ccoc2nc2c(O)cccc12 [ROBUSTINE] | 4.74 | < 4.30 |
| COc1ccc2c(OC)c3ccoc3nc2c1OC [SKIMMIANINE] | 4.88 | 4.72 |
| c1ccc2c(c1)[I+]c1ccccc1-2 [DIPHENYLENEIODONIUM] | 5.77 |  |
| COc1c2c(cc3ccc(=O)oc13)C=CC(C)(C)O2 [LUVANGETIN] | < 4.30 | < 4.30 |
| CC1(C)C=Cc2cc(/C=C/C=O)ccc2O1 | < 4.30 | < 4.30 |
| COc1cc2ccc(=O)oc2cc1O [SCOPOLETIN] | < 4.30 | < 4.30 |
| COc1cc(=O)n(C)c2ccccc12 | < 4.30 | < 4.30 |
| O=S(=O)(F)Cc1ccccc1 [PHENYLMETHYLSULFONYLFLUORIDE] |  | 3.69 |
| COc1cc([C@@H]2OC[C@@H]3[C@H]2CO[C@H]3c2cc(OC)c(O)c(OC)c2)cc(OC)c1O | 4.40 | < 4.30 |
| COc1cc([C@@H]2Oc3cc(/C=C/C=O)cc(O)c3O[C@H]2CO)cc(OC)c1OC | < 4.30 | < 4.30 |
| COc1cc(/C=C\C(=O)OC[C@H]2[C@@H](Cc3cc(OC)c(O)c(OC)c3)CO[C@@H]2c2cc(OC)c(O)c(OC)c2)ccc1O | 4.55 | 4.54 |
| COc1c2c(c3ccc(=O)oc3c1/C=C/C(C)(C)OC)OC(C)(C)C=C2 [AVICENNOL METHYL ETHER] | 4.31 | < 4.30 |
| COc1cc(=O)[nH]c2c(OC)cccc12 [EDULITINE] | 4.42 | < 4.30 |
| COc1c2ccoc2nc2c(OC)cccc12 [GAMMA-FAGARINE] | 4.50 | < 4.30 |
| COc1cc([C@@H]2Oc3cc(/C=C/C=O)ccc3O[C@H]2CO)cc(OC)c1O | 4.57 | < 4.30 |
| COc1cc(/C=C/C(=O)OC[C@H]2[C@@H](Cc3cc(OC)c(O)c(OC)c3)CO[C@@H]2c2cc(OC)c(O)c(OC)c2)ccc1O | 4.47 | < 4.30 |
| COc1cc2ccc(=O)oc2c(OC)c1OC [FRAXIDIN METHYL ETHER] | 4.31 | < 4.30 |
